This passage reports half-life results from PubChem BioAssay AID504731 (National Center for Advancing Translational Sciences (NCATS), 2011).

Each structure is given as a SMILES string.

In the series the test system is mouse liver microsomes, T1/2, LC-MS/MS. Put plainly: Allosteric/Competitive Inhibitors of Caspase 1: Metabolic Stability Profiling. Particulars: at 1 µM; stronger effect = higher value. From the text: The caspases (Cysteine Aspartyl Protease) comprise a related family of 14 dimeric proteases that are critical mediators of apoptosis (programmed cell death) and inflammation. The caspases represent an important class of drug targets for stroke, ischemia, cancer and inflammatory diseases. The goal of this project was to identify compounds that act as selective inhibitors caspase 1. To identify both allosteric and competitive inhibitors of caspase 1, the enzyme was screened using a pro-fluorescent substrate in a qHTS format. […] Mouse liver microsomes are created through broken up endoplasmic reticulum from mouse liver. These liver microsomes contain many drug metabolizing enzymes, such as Cytochome P-450s and flavin-containing monooxygenases. Because metabolism is major way of drug clearance, this is an important result. H Chemical Genomics Center [NCGC] NIH Molecular Libraries Probe Production Centers Network [MLPCN] MLSCN Grant: 1 X01 MH078950-01 PI Name: Dr. James Wells
1uM of compound in incubated in mouse liver microsome; the reference compound is ketanserin. Compounds are incubated at 37 degrees C for different time periods: 0, 5, 15, 30, 45, and 60 minutes. Samples are analyzed with LC-MS/MS.

The term half-life denotes the time needed for the level to fall by half in the phase considered.

Consider `CC(C)(C)[C@H](NC(=O)c1ccc(N)c(Cl)c1)C(=O)N1CCC[C@H]1C(=O)N[C@H](C#N)CC(=O)O`, for which the half-life was 3.43 h.
